From paper PMC3653948, “PDZ Domain-Mediated Interactions of G Protein-Coupled Receptors with Postsynaptic Density Protein 95: Quantitative Characterization of Interactions” (PLoS ONE, 2013)
Like-named read-outs stand apart in the source and are kept apart here. Peptide text beside a SMILES is read from it.

Columns and labels:
PSD-95 PDZ1 [1] = target: T1, PSD-95 PDZ1 (Homo sapiens, UniProt P78352); experiment: FP competition assay, PSD-95 PDZ1 (probe Cy5-KIF1Bα); assay type: binding
T1 construct: PSD-95 PDZ1 (aa 61–151); made in house; host or cells: E. coli One Shot BL21 Star (DE3)
Method: (§4) FP measurements were performed in black, flat bottom 384-well NBS microplates (Corning) on a Synergy H4 microplatereader (BioTek Instruments) equipped with a 620/40 nm excitation filter, a 680/30 nm emission filter, and a 660 nm dichroic mirror. Polarization values were corrected with blank samples and samples with fluorescent probe alone. At least 10 data points were measured for each curve, and each data point was measured in triplicate. […] All FP measurements were performed in a buffer containing 10 mM HEPES pH 7.4, 150 mM NaCl, and 1% BSA and incubated at least 15 min at room temperature before reading. The signal was stable for more than an hour, showing that the reaction was at equilibrium.
(§5) For the competition binding curves, probe was mixed with a constant concentration of PDZ protein corresponding to the K d and a twofold dilution series of unlabeled peptide in a total volume of 30 µl. The baseline was determined using a sample containing only probe. The IC50 was determined by fitting to a 1∶1 binding model: Y = Ymax − Ymax × X/(X+IC50). The K i was calculated from the IC50 and from the K d for the interaction between the PDZ protein and the probe as described previously [38].

PSD-95 PDZ1 [2] = target: T1, PSD-95 PDZ1; experiment: SPR steady-state binding to immobilized PSD-95 PDZ1
Source text: (§1) To confirm the affinities measured by FP using an orthogonal method and to get information about the kinetics of the GPCR–PDZ interactions, we used SPR. This label-free, surface sensitive technique measures the binding of a ligand to an immobilized protein as a function of time based on refractive index changes.
(§2) For each of the PSD-95 PDZ domains, we determined the K d and the stability of the complexes for selected GPCR C-tail peptides. The residence time τ ( = 1/k d) was used as a convenient measure of the stability of the complexes. […] The K d determined from the steady-state responses of a range of C-tail peptide concentrations (Figure 2B and Table S4) correlated well with the K i values obtained by FP (Figure S1).
(§3) A Biacore X100 (GE Healthcare) SPR instrument equilibrated to 25.0°C and equipped with a Sensor Chip CM5 (for PDZ1 and PDZ2) or CM4 (for PDZ3) (GE Healthcare) was used for the SPR measurements. The running buffer was HBS-EP+ (10 mM HEPES pH 7.4, 150 mM NaCl, 3 mM EDTA, 0.05% Surfactant P-20 (GE Healthcare)).
PDZ domains were immobilized by amine coupling at a flow rate of 5 µl/min on a surface activated by a 7 min injection of a 1∶1 mixture of 0.4 M 1-ethyl-3-(3-dimethylaminopropyl) carbodiimide (EDC) and 0.1 M N-hydroxysuccinimide (NHS). The remaining active groups were deactivated by a 7 min injection of 1 M ethanolamine HCl pH 8.5. 750 RU PDZ1, 780 RU PDZ2, and 410 RU PDZ3 were immobilized.
GPCR C-tail peptide samples were injected in increasing concentrations for 1 min with 1 min dissociation time at 30 µl/min. Reproducibility was tested by injecting the 20 µM sample again after the highest concentration sample. The binding curves were corrected by subtraction of buffer blanks and the response from a reference surface that was activated with EDC and NHS and deactivated with ethanolamine like the surface with immobilized PDZ domain. For peptides with a cysteine, 1 mM dithiothreitol (DTT) was added to the samples. Steady-state response curves were plotted from the responses 10 s before injection end. The K d was determined by fitting steady-state response curves to a 1∶1 binding model with a linear component to corrrect for low affinity binding, probably resulting from the immobilization: Y = Ymax × X/(X+K d)+B × X.

PSD-95 PDZ2 [3] = target: T2, PSD-95 PDZ2 (Homo sapiens, UniProt P78352); experiment: FP competition assay, PSD-95 PDZ2 (probe Cy5-GluN2B); assay type: binding; conditions: read-out: K i PDZ2
T2 construct: PDZ2 (aa 155–249); made in house; host or cells: E. coli One Shot BL21 Star (DE3)
Method: as §4, §5

PSD-95 PDZ3 = target: T3, PSD-95 PDZ3 (Homo sapiens, UniProt P78352); experiment: FP competition assay, PSD-95 PDZ3 (probe Cy5-CRIPT); assay type: binding; conditions: read-out: K i PDZ3
T3 construct: made in house; host or cells: E. coli One Shot BL21 Star (DE3)
Method: We used a competition set-up, where a constant concentration of isolated PSD-95 PDZ domain and a labeled reference ligand was titrated with unlabeled peptides from the GPCR C-tail library, typically within a 1–512 µM concentration range, and the resulting curves were fitted to obtain the IC50, which was used to calculate the K i (Figure 1). Three Cy5-labeled peptides with well-documented interactions with PSD-95 were used as reference ligands for the competition assay: Cy5-KIF1Bα was used for PDZ1 [20], Cy5-GluN2B (formerly known as NR2B) was used for PDZ2 and PDZ1-2 [21], and Cy5-CRIPT was used for PDZ3 [22] (Table S1). Competition with unlabeled versions of the reference ligands was used to validate the FP assay by comparison with the literature (Table S2).
FP measurements were performed in black, flat bottom 384-well NBS microplates (Corning) on a Synergy H4 microplatereader (BioTek Instruments) equipped with a 620/40 nm excitation filter, a 680/30 nm emission filter, and a 660 nm dichroic mirror. Polarization values were corrected with blank samples and samples with fluorescent probe alone. At least 10 data points were measured for each curve, and each data point was measured in triplicate. 25 nM Cy5-labeled probe was used for each assay: Cy5-KIF1Bα for PDZ1, Cy5-GluN2B for PDZ2 and PDZ1-2, and Cy5-CRIPT for PDZ3. All FP measurements were performed in a buffer containing 10 mM HEPES pH 7.4, 150 mM NaCl, and 1% BSA and incubated at least 15 min at room temperature before reading. The signal was stable for more than an hour, showing that the reaction was at equilibrium.
Saturation binding curves were used to determine the functionality of the PDZ domains by comparison with literature values and to calculate K i values from competition curves. Saturation binding curves were performed by mixing probe with a twofold dilution series of PDZ protein in a total volume of 30 µl. The K d was determined by fitting to a 1∶1 binding model: Y = Ymax × X/(X+K d).
For the competition binding curves, probe was mixed with a constant concentration of PDZ protein corresponding to the K d and a twofold dilution series of unlabeled peptide in a total volume of 30 µl. The baseline was determined using a sample containing only probe. The IC50 was determined by fitting to a 1∶1 binding model: Y = Ymax − Ymax × X/(X+IC50). The K i was calculated from the IC50 and from the K d for the interaction between the PDZ protein and the probe as described previously.

PSD-95 PDZ2 [4] = target: T2, PSD-95 PDZ2; experiment: SPR steady-state binding to immobilized PSD-95 PDZ2
Source text: as §1, §2
as §3, with “Healthcare)). […]” for “Healthcare)).”
GPCR C-tail peptide samples were injected in increasing concentrations for 1 min with 1 min dissociation time at 30 µl/min. […] The K d was determined by fitting steady-state response curves to a 1∶1 binding model with a linear component to corrrect for low affinity binding, probably resulting from the immobilization: Y = Ymax × X/(X+K d)+B × X.

[5] = 25 nM Cy5-KIF1Bα, 10 mM HEPES pH 7.4, 150 mM NaCl, 1% BSA, room temperature, mean Ki ± SEM from two or more independent experiments, read-out: K i PDZ1
[6] = 25 nM Cy5-KIF1Bα, 10 mM HEPES pH 7.4, 150 mM NaCl, 1% BSA, room temperature, at least 15 min, Ki ± fitting error, read-out: K i PDZ1
[7] = receptors binding to PDZ1 but not to PDZ2, read-out: K i PDZ1

Row | Compound | Ki (PSD-95 PDZ1 [1]; [5]) | Kd (PSD-95 PDZ1 [2]) | Ki (PSD-95 PDZ2 [3]) | Ki (PSD-95 PDZ3) | Kd (PSD-95 PDZ2 [4]) | Ki (PSD-95 PDZ1 [1]; [6]) | Ki (PSD-95 PDZ1 [1]; [7])
1 | CC[C@H](C)[C@H](NC(=O)[C@H](CCCNC(=N)N)NC(=O)[C@H](CCC(=O)O)NC(=O)[C@H](CO)NC(=O)[C@@H](NC(=O)[C@@H](NC(=O)[C@H](CO)NC(=O)[C@H](CCCNC(=N)N)NC(=O)[C@H](CC(=O)O)NC(=O)[C@H](CC(=O)O)NC(=O)[C@@H](N)Cc1ccc(O)cc1)C(C)C)C(C)C)C(=O)N[C@@H](CO)C(=O)N[C@@H](CO)C(=O)N[C@H](C(=O)O)C(C)C [5-HTR2C] (H-YDDRSVVSERISSV-OH) | 100 ± 0.1 µM | 160 ± 12 µM | 26 ± 0.4 µM | 370 ± 40 µM | – | – | –
2 | CC[C@H](C)[C@H](NC(=O)[C@H](CC(=O)O)NC(=O)[C@H](CCC(N)=O)NC(=O)[C@H](CCCNC(=N)N)NC(=O)[C@H](CC(=O)O)NC(=O)[C@H](CC(=O)O)NC(=O)[C@@H](N)Cc1ccc(O)cc1)C(=O)N[C@H](C(=O)N[C@@H](CC(=O)O)C(=O)N[C@@H](CC(C)C)C(=O)N[C@@H](CCC(N)=O)C(=O)N[C@H](C(=O)N[C@@H](CCC(=O)O)C(=O)N[C@H](C(=O)O)C(C)C)[C@@H](C)O)[C@@H](C)CC [BAI1] (H-YDDRQDIIDLQTEV-OH) | 63 ± 6.3 µM | 120 ± 3.8 µM | 29 ± 1.9 µM | 790 ± 93 µM | – | – | –
3 | CC[C@H](C)[C@H](NC(=O)[C@H](CCCNC(=N)N)NC(=O)[C@H](CO)NC(=O)[C@@H](NC(=O)[C@H](CS)NC(=O)[C@@H](NC(=O)CNC(=O)[C@H](CCCNC(=N)N)NC(=O)[C@H](CC(=O)O)NC(=O)[C@H](CC(=O)O)NC(=O)[C@@H](N)Cc1ccc(O)cc1)[C@@H](C)O)[C@@H](C)O)C(=O)N[C@H](C(=O)N[C@H](C(=O)N[C@@H](CC(C)C)C(=O)O)[C@@H](C)O)[C@@H](C)O [SSTR1 Human] (H-YDDRGTCTSRITTL-OH) | 50 ± 3.2 µM | – | 28 ± 2 µM | 200 ± 34 µM | 76 ± 1.5 µM | – | –
4 | CC[C@H](C)[C@H](NC(=O)[C@H](CCCNC(=N)N)NC(=O)[C@H](CO)NC(=O)[C@H](C)NC(=O)[C@H](CS)NC(=O)[C@@H](NC(=O)CNC(=O)[C@H](CCCNC(=N)N)NC(=O)[C@H](CC(=O)O)NC(=O)[C@H](CC(=O)O)NC(=O)[C@@H](N)Cc1ccc(O)cc1)[C@@H](C)O)C(=O)N[C@@H](CO)C(=O)N[C@H](C(=O)N[C@@H](CC(C)C)C(=O)O)[C@@H](C)O [SSTR1 Mouse] (H-YDDRGTCASRISTL-OH) | – | 270 ± 9.1 µM | 90 ± 14 µM | > 1000 µM | – | 270 ± 35 µM | –
5 | CC[C@H](C)[C@H](NC(=O)[C@H](CCCNC(=N)N)NC(=O)[C@H](CCCNC(=N)N)NC(=O)[C@H](CC(=O)O)NC(=O)[C@H](CC(=O)O)NC(=O)[C@@H](N)Cc1ccc(O)cc1)C(=O)N1CCC[C@H]1C(=O)N[C@@H](CC(C)C)C(=O)N[C@H](C(=O)N[C@@H](CCCNC(=N)N)C(=O)N[C@H](C(=O)N[C@H](C(=O)N[C@H](C(=O)N[C@@H](Cc1ccccc1)C(=O)O)[C@@H](C)O)[C@@H](C)O)[C@@H](C)O)[C@@H](C)O [SSTR4 Human] (H-YDDRRIPLTRTTTF-OH) | – | – | 450 ± 58 µM | 600 ± 67 µM | – | 750 ± 80 µM | –
6 | CC(C)[C@H](NC(=O)[C@H](CCC(N)=O)NC(=O)[C@H](CCCNC(=N)N)NC(=O)[C@H](CC(=O)O)NC(=O)[C@H](CC(=O)O)NC(=O)[C@@H](N)Cc1ccc(O)cc1)C(=O)N1CCC[C@H]1C(=O)N[C@@H](Cc1ccccc1)C(=O)N[C@H](C(=O)N[C@@H](CCCCN)C(=O)N[C@H](C(=O)N[C@H](C(=O)N[C@H](C(=O)N[C@@H](Cc1ccccc1)C(=O)O)[C@@H](C)O)[C@@H](C)O)[C@@H](C)O)[C@@H](C)O [SSTR4 Mouse] (H-YDDRQVPFTKTTTF-OH) | – | – | 420 ± 52 µM | > 1000 µM | – | > 1000 µM | –
7 | CC(C)[C@H](NC(=O)[C@H](CC(N)=O)NC(=O)[C@@H](NC(=O)[C@H](C)NC(=O)[C@H](CCC(=O)O)NC(=O)[C@@H](NC(=O)[C@H](Cc1ccccc1)NC(=O)[C@H](CO)NC(=O)[C@H](CC(=O)O)NC(=O)[C@H](CC(N)=O)NC(=O)[C@H](CCCNC(=N)N)NC(=O)[C@H](CC(=O)O)NC(=O)[C@H](CC(=O)O)NC(=O)[C@@H](N)Cc1ccc(O)cc1)[C@@H](C)O)[C@@H](C)O)C(=O)O [Y2] (H-YDDRNDSFTEATNV-OH) | – | – | 230 ± 14 µM | > 1000 µM | – | 270 ± 22 µM | –
8 | CC(C)C[C@H](NC(=O)[C@@H](NC(=O)[C@H](CO)NC(=O)[C@H](CO)NC(=O)[C@H](CO)NC(=O)[C@H](CCC(N)=O)NC(=O)[C@H](CCCCN)NC(=O)[C@H](Cc1ccc(O)cc1)NC(=O)[C@H](CC(=O)O)NC(=O)[C@H](CCCNC(=N)N)NC(=O)[C@H](CCCNC(=N)N)NC(=O)[C@H](CC(=O)O)NC(=O)[C@@H](N)CC(=O)O)[C@@H](C)O)C(=O)O [mGlu1(a)] (H-DDRRDYKQSSSTL-OH) | – | – | > 1000 µM | > 1000 µM | – | – | > 600 µM
9 | CC[C@H](C)[C@H](NC(=O)[C@@H](NC(=O)[C@H](CC(C)C)NC(=O)[C@H](CC(N)=O)NC(=O)[C@H](CC(N)=O)NC(=O)[C@H](Cc1ccc(O)cc1)NC(=O)[C@H](CO)NC(=O)[C@@H](NC(=O)[C@H](Cc1ccc(O)cc1)NC(=O)[C@H](CCCCN)NC(=O)[C@H](CCCNC(=N)N)NC(=O)[C@H](CC(=O)O)NC(=O)[C@@H](N)CC(=O)O)C(C)C)C(C)C)C(=O)O [mGlu7(a)] (H-DDRKYVSYNNLVI-OH) | – | – | > 1000 µM | > 1000 µM | – | 610 ± 51 µM | > 600 µM
10 | CC(C)[C@H](NC(=O)[C@H](CCCCN)NC(=O)[C@H](CO)NC(=O)[C@H](CCC(=O)O)NC(=O)[C@H](CO)NC(=O)[C@H](C)NC(=O)[C@H](Cc1ccccc1)NC(=O)CNC(=O)[C@@H]1CCCN1C(=O)[C@H](CCCNC(=N)N)NC(=O)[C@H](CCCNC(=N)N)NC(=O)[C@H](CC(=O)O)NC(=O)[C@H](CC(=O)O)NC(=O)[C@@H](N)Cc1ccc(O)cc1)C(=O)O [β1AR] (H-YDDRRPGFASESKV-OH) | – | – | 120 ± 20 µM | 360 ± 82 µM | – | 430 ± 47 µM | –
